Patent US7208495B2, “Benzo-fused 5-membered hetrocycle compounds, process for preparation of the same, and use thereof” (Takeda Pharmaceutical Company Limited, priority 2001, dated 2007)

Columns and labels:
[1] = test system: human neuroblastoma SK-N-SH cells; assay: Cytoprotection activity against PI-3 kinase inhibitor LY-294002 in human neuroblastoma SK-N-SH cells; assay type: cell-based; details: test compound 1.0 μM with LY-294002 30 μM, Alamarblue reduction one day after start, (A−B)/(C−B)×100
Protocol: Cytoprotection activity against a PI-3 kinase inhibitor LY-294002 in human neuroblastoma SK-N-SH cells.
Human neuroblastoma SK-N-SH cells were purchased from American Type Cell Culture (ATCC). DMEM/F-12 culture medium and potassium/magnesium-free phosphate buffer saline (PBS(−)) were purchased from Nikken Biomedical Co., Ltd., N2 additives and EDTA solution were purchased from GIBCO BRL Company, fetal bovine serum (FCS) and a mixed solution of penicillin (5000 U/ml) and streptomycin (5 mg/ml) were purchased from BioWhittaker Inc., Alamarblue™ reagent was purchased from Wako Pure Chemical Industries Ltd., culture flasks were purchased from Falcon Company, collagen-coated 96-well multi-plates were purchased from Iwaki Glass Co., Ltd., and LY-294002 was purchased from Alexis Biochemicals, respectively. As for other reagents, commercially available guaranteed reagents were used.
A DMEM/F-12 culture medium which contains 5% FCS, 0.5% N2, 10 mM HEPES, and a 1% mixed solution of penicillin (5000 U/ml) and streptomycin (5 mg/ml) was used to subculture SK-N-SH cells in a carbon dioxide incubator under a mixed gas atmosphere consisting of 10% carbon dioxide/90% air. After being cultivated to a sub-confluent stage, the cells were detached with a PBS(−) solution containing 2.5 mM EDTA and seeded onto collagen-coated 96-well multi-plates in the proportion of 10^4/100 μL well. After cultivation for 24 hours, the cultured cells were used in a cytotoxic test.
[…] of the culture medium of the SK-N-SH cells that were cultured as described above on the collagen-coated 96-well multi-plates was removed, and 40 μL each of LY-294002 having a final concentration of 30 μM and a test compound having a final concentration that was adjusted to be 1.0 μM were simultaneously added to initiate the cytotoxicity test. Note that each test compound used was diluted to a concentration of 10 mM with dimethyl sulfoxide, and the LY-294002 used was diluted to a concentration of 100 mM with dimethyl sulfoxide.
The survival activity of neural cells that were still living one day after the initiation of the cytotoxicity test was estimated by the reductive activity of Alamarblue™ reagent as an index. 20 μL of the culture medium was removed, 20 μL of Alamarblue™ reagent was added, and the amount of Alamarblue™ reagent reduced for 4 hours incubation was calorimetrically measured with a plate reader (WAKO SPECTRAMAX 250 Microplate Reader) (measurement wave length 570 nm, reference wave length 600 nm).
Cytoprotection activity was calculated by means of the following equation. Cytoprotection activity a test compound=(A−B)/(C−B)×100 (%) • A: The survival activity of a group consisting of a test compound and LY-294002 • B: The survival activity of a group consisting of LY-294002 • C: The survival activity of a control group (Results)
At least 4 wells for every 1 dose of a test compound was used to determine the cytoprotection activity of a test compound.

mixed rat glia culture = assay: Neurogenesis enhancing activity in mixed rat glia culture (β III-tubulin positive cell area); assay type: cell-based; details: compound 1 μM; serum-free medium, five days differentiation; β III-tubulin positive cell area by image analysis versus control without compound
From the text: Neurogenesis Enhancing Activity in Mixed Rat Glia Culture
Neonatal of SD rats were purchased from Japan Charles River Co, Ltd. A […] nylon cell strainer was purchased from Beckton-Dickinson. DMEM/F12 culture medium, antibiotic, and N2 additive were purchased from Life Technology Corp. Anti β III-tubulin antibody was purchased from Sigma Corp. DAKO EnVision+/HRP kit was purchased from Dako Japan Corp. As for other reagents, commercially available guaranteed reagents were used.
Rat mixed glia culture was prepared from the cerebrums of 2 day old neonatal SD rat. The neonates were anaesthetised with ice cooling, were decapitated, and their brains were quickly removed. The meninges were carefully removed, and the cerebral cortex was separated therefrom. The cerebral cortex was passed through 40 micron nylon mesh, and it was physically dissociated. Cell suspension was then layered in a cell dispersion liquid on serum, and the cells were fractionated by non-continuous density gradient centrifugation. The precipitate was washed twice with growth culture medium (10% FBS and antibiotic. added to DMEM/F12), and it was dispersed. Mixed glia culture was seeded and inoculated onto a collagen coated 96 well multiplate with 1×10^5 cells per well, and was cultured for five days.
After culturing for five days, mixed glia culture was used in a differentiation assay. Growth culture medium was substituted with a serum-free medium (N2 supplememt and antibiotic added to DMEM/F12), and test compound was added simultaneously. After differentiation for five days, culture was fixed with 4% paraformaldehyde, and was immunostained with the mouse anti β III-tubulin monoclonal antibody and the DAKO EnVison+/HRP kit.
β III-tubulin positive cell area were quantified by image analysis, and was compared to when compound (I) was added (1 μM) and when it was not added (control).

Row | Compound | Cell protection activity (%) [1] | Differentiation/nacent promotion activity (%/control) (mixed rat glia culture)
1 | COc1ccc(N2CCN(c3c(C)c(C)c4c(c3C)C(O)(c3ccc(C)cc3)C(C)(C)O4)CC2)cc1 (stereo not shown) [Example 33, 1-(3-hydroxy-2,2,4,6,7-pentamethyl-3-(4-methylphenyl)-2,3-dihydro-1-benzofuran-5-yl)-4-(4-methoxyphenyl)piperazine] | 24.9% | 448 %/control
2 | COc1ccc(N2CCN(c3c(C)c(C)c4c(c3C)C(c3ccc(C)cc3)C(C)(C)O4)CC2)cc1 (stereo not shown) [Example 46, 1-(2,2,4,6,7-pentamethyl-3-(4-methylphenyl)-2,3-dihydro-1-benzofuran-5-yl)-4-(4-methoxyphenyl)piperazine] | 39.5% | 842 %/control
3 | COc1ccc(C2CCN(c3c(C)c(C)c4c(c3C)C(c3ccc(C)cc3)C(C)(C)O4)CC2)cc1OC (stereo not shown) [Example 79, 4-(3,4-dimethoxyphenyl)-1-(3-(4-methylphenyl)-2,2,4,6,7-pentamethyl-2,3-dihydro-1-benzofuran-5-yl)piperidine] | 31.3% | –
4 | COc1ccc(N2CCN(c3c(C)c(C)c4c(c3C)C(N3CCCCC3)C(C)(C)O4)CC2)cc1 (stereo not shown) [Example 59, 4-(4-methoxyphenyl)-1-(2,2,4,6,7-pentamethyl-3-piperidino-2,3-dihydro-1-benzofuran-5-yl)piperazine] | 23.9% | –
5 | COc1ccc(C2CCN(c3c(C)c(C)c4c(c3C)[C@@H](c3ccc(C)cc3)C(C)(C)O4)CC2)cc1OC [Example 32, (3R)-4-(3,4-dimethoxyphenyl)-1-(2,2,4,6,7-pentamethyl-3-(4-methylphenyl)-2,3-dihydro-1-benzofuran-5-yl)piperidine] | 35.6% | 371 %/control
6 | COc1ccc(C2CCN(c3c(C)c(C)c4c(c3C)C(N3CCc5ccccc5CC3)C(C)(C)O4)CC2)cc1OC (stereo not shown) [Example 92, 3-(5-(4-[3,4-dimethoxyphenyl]piperidino)-2,2,4,6,7-pentamethyl-2,3-dihydro-1-benzofuran-3-yl)-2,3,4,5-tetrahydro-1H-3-benzoazepin] | 29.6% | –
7 | COc1ccc(N2CCN(c3c(C)c(C)c4c(c3C)C(Nc3ccccc3)C(C)(C)O4)CC2)cc1 (stereo not shown) [Example 58, N-phenyl-5-(4-(4-methoxyphenyl)piperazin-1-yl)-2,2,4,6,7-pentamethyl-2,3-dihydro-1-benzofuran-3-amine] | 39.2% | –
